The source of these data is US11028051B2, “Tetrahydroquinoline-based bromodomain inhibitors” (St. Jude Children's Research Hospital, priority 2016, dated 2021).

Usually EC50 stands for the concentration that produces a half-maximal response.

Holding throughout (test): competitive TR-FRET assay, BET-BD with acetylated peptide ligand
Common to all, as to type: binding
(Time-resolved FRET reads energy transfer from a long-lived donor to a nearby acceptor.)

Assay [1] has as its target BRD2-BD1 (Homo sapiens (Human), UniProt P25440). Particulars: BRD2-BD1; Table 11 additional modifications; read-out: 2.1 EC50. The protocol:
(§1) Inhibitor potency was determined using a competitive TR-FRET assay as detailed herein, measuring interaction of the respective BET-BD with an acetylated peptide ligand (Table 2).

For assay [2], the target named is BRD2-BD2 (Homo sapiens (Human), UniProt P25440). Particulars: for EC50: BRD2-BD2, Table 11 additional modifications, read-out: 2.2 EC50; for 2.1/2.2: ratio of BRD2-BD1 EC50 to BRD2-BD2 EC50 (selectivity). The protocol:
as §1

In assay [3] the target is BRD4-BD1 (Homo sapiens (Human), UniProt O60885). To be noted: BRD4-BD1; Table 11 additional modifications; read-out: 4.1 EC50. The method, then: as §1
Assay [4] deals with BRD3-BD1 (Homo sapiens (Human), UniProt Q15059). To be noted: BRD3-BD1; Table 11 additional modifications; read-out: 3.1 EC50. The protocol: as §1
Sequence of BRD3-BD1 (Q15059 34-140): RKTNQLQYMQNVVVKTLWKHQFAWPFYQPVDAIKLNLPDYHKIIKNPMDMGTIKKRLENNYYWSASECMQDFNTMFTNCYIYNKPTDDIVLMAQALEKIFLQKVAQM
Assay [5] addresses BRD4-BD2 (Homo sapiens (Human), UniProt O60885). Particulars: BRD4-BD2; Table 11 additional modifications; read-out: 4.2 EC50. The protocol: as §1
The target in assay [6] is BRDT (Homo sapiens, UniProt Q58F21). Particulars: BRDT; Table 11 additional modifications; read-out: BRDT EC50. The method, then:
as §1

The structures appear in SMILES notation. A value given as a limit tells only on which side of the number the result lay.

Sequence of BRD2-BD2 (P25440 344-453): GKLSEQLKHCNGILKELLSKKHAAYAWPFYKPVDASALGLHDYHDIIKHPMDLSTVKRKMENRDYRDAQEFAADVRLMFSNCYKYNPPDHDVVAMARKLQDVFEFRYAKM
Sequence of BRD2-BD1 (P25440 74-180): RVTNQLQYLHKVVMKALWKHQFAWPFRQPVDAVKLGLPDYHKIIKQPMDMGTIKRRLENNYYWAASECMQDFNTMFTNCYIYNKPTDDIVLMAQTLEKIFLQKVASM

For `CC(=O)N1c2ccc(-c3c[nH]c4ccccc34)cc2[C@H](NC(=O)OC(C)C)C[C@@H]1C` [compound 91], the EC50 is 1.3 µM in assay [1]; 1.1 µM in assay [2]; 0.86 µM in assay [3]; 1.1 µM in assay [4]; 37 µM in assay [5]; 4.9 µM in assay [6]. Besides, in assay [2], the 2.1/2.2 came out at 0.032.

In the case of `CC(=O)N1c2ccc(-c3cccc(CCO)c3)cc2[C@H](NC(=O)OC(C)C)C[C@@H]1C` [compound 89], the EC50 in assay [1] stood at 1.6 µM; in assay [2], 0.43 µM; in assay [3] it was 1.4 µM; in assay [4] it was 0.87 µM; in assay [5], 1.7 µM. For the same molecule, in assay [2], the 2.1/2.2 turned out to be 0.067.

For the molecule `CC(=O)N1c2ccc(-c3cccn(C)c3=O)cc2[C@H](NC(=O)OC(C)C)C[C@@H]1C` [compound 87], the EC50 was 68 µM in assay [1]; 13 µM in assay [2]; 68 µM in assay [3]; 13 µM in assay [4]; 7.6 µM in assay [5]. Moreover, the 2.1/2.2 in assay [2] is 5.4.

In the case of `CC(=O)N1c2ccc(-c3cc4ccccc4o3)cc2[C@H](NC(=O)OC(C)C)C[C@@H]1C` [compound 86], the EC50 was 1.8 µM in assay [1]; 27 µM in assay [2]; 2.5 µM in assay [3]; 1 µM in assay [4]; 41 µM in assay [5]. In addition, the 2.1/2.2 in assay [2] is on record as 4.7.

`COc1ccccc1-c1ccc2c(c1)[C@H](NC(=O)OC(C)C)C[C@H](C)N2C(C)=O` [compound 60]: the EC50 is 15 µM in assay [1]; 2.9 µM in assay [2]; above 50 µM in assay [3]; 11 µM in assay [4]; 14 µM in assay [5]. Besides, the 2.1/2.2 in assay [2] is given as 5.3.

As for `COc1ccc(C(=O)N[C@@H]2C[C@H](C)N(C(C)=O)c3ccc(-c4cccc(NC(C)=O)c4)cc32)cc1` [compound 66], the EC50 in assay [1] amounted to 71 µM; in assay [2] it was 36 µM; in assay [3], 78 µM; in assay [4], 77 µM; in assay [5], 78 µM. Also, the 2.1/2.2 in assay [2] was 2.0.

For `CCC(=O)N[C@@H]1C[C@H](C)N(C(C)=O)c2ccc(-c3cccc(NC(C)=O)c3)cc21` [compound 67], the EC50 in assay [1] is 24 µM; in assay [2], 18 µM; in assay [3], 60 µM; in assay [4], 36 µM; in assay [5], 11 µM. Also, in assay [2], the 2.1/2.2 is 1.4.

With `CC(=O)N1c2ccc(-c3cccc(-n4cccn4)c3)cc2[C@H](NC(=O)OC(C)C)C[C@@H]1C` [compound 78], the EC50 stood at 7.7 µM in assay [1]; 2.9 µM in assay [2]; 6.1 µM in assay [3]; 4 µM in assay [4]; 6.7 µM in assay [5]. The 2.1/2.2 in assay [2] came out at 2.6.

For `CC(=O)Nc1cccc(-c2ccc3c(c2)[C@H](Nc2ccc(C(=O)O)cc2)C[C@H](C)N3C(C)=O)c1` [compound 120], the EC50 in assay [1] was 33 µM; in assay [2] it was 0.13 µM; in assay [3], 13 µM; in assay [4] it was 4.9 µM; in assay [5], 0.17 µM. The 2.1/2.2 in assay [2] was 3.1.

Consider `CC(=O)Nc1cccc(-c2ccc3c(c2)[C@H](NC(=O)c2ccc(Cl)cc2)C[C@H](C)N3C(C)=O)c1` [compound 72], for which the half-maximal effective concentration (EC50) in assay [1] turned out to be 51 µM; in assay [2], 51 µM; in assay [3], 39 µM; in assay [4] it was 27 µM; in assay [5] it was 51 µM. The 2.1/2.2 in assay [2] turned out to be 1.0.

As for `CCOC(=O)c1ccc(-c2ccc3c(c2)[C@H](NC(=O)OC(C)C)C[C@H](C)N3C(C)=O)o1` [compound 83], the EC50 in assay [1] amounted to 7.5 µM; in assay [2] it was 1.6 µM; in assay [3] it was 6 µM; in assay [4], 4.3 µM; in assay [5], 3.4 µM. Besides, in assay [2], the 2.1/2.2 was determined as 1.7.

Consider `CC(=O)N1c2ccc(-c3ccc(Oc4ccccc4)cc3)cc2[C@H](NC(=O)OC(C)C)C[C@@H]1C` [compound 61], for which the EC50 in assay [1] stood at 13 µM; in assay [2], 2.1 µM; in assay [3], 11 µM; in assay [4], 8.8 µM; in assay [5] it was 14 µM. Also, the 2.1/2.2 in assay [2] is 6.2.

In the case of `COc1ccc(-c2ccc3c(c2)[C@H](NC(=O)OC(C)C)C[C@H](C)N3C(C)=O)cc1` [compound 59], the EC50 was 3.6 µM in assay [1]; 1.2 µM in assay [2]; 3.5 µM in assay [3]; 1.9 µM in assay [4]; 2.1 µM in assay [5]. Also, the 2.1/2.2 in assay [2] was determined as 2.9.

Regarding `CC(=O)N1c2ccc(-c3cccc([N+](=O)[O-])c3)cc2[C@H](NC(=O)OC(C)C)C[C@@H]1C` [compound 58], the EC50 in assay [1] was 7.7 µM; in assay [2], 1.1 µM; in assay [3], above 96 µM; in assay [4] it was 5.2 µM; in assay [5] it was 6.2 µM. Also, the 2.1/2.2 in assay [2] is 7.0.

On to `CC(=O)N1c2ccc(-c3ccc(N(C)C)cc3)cc2[C@H](NC(=O)OC(C)C)C[C@@H]1C` [compound 57], for which the EC50 in assay [1] came to 1.5 µM; in assay [2], 0.79 µM; in assay [3] it was 2.9 µM; in assay [4], 1.4 µM; in assay [5], 0.73 µM. The 2.1/2.2 in assay [2] came out at 1.9.

For the molecule `CC(=O)Nc1cccc(-c2ccc3c(c2)[C@H](NC(=O)c2ccc(F)cc2)C[C@H](C)N3C(C)=O)c1` [compound 68], the EC50 was found to be 70 µM in assay [1]; 10 µM in assay [2]; 80 µM in assay [3]; 41 µM in assay [4]; 20 µM in assay [5]. Moreover, the 2.1/2.2 in assay [2] turned out to be 6.9.

For the molecule `CC(=O)Nc1ccc(N[C@@H]2C[C@H](C)N(C(C)=O)c3ccc(-c4cccc(NC(C)=O)c4)cc32)cc1` [compound 76], the EC50 was found to be 3.4 µM in assay [1]; 0.27 µM in assay [2]; 3.2 µM in assay [3]; 2.3 µM in assay [4]; 0.65 µM in assay [5]. In addition, the 2.1/2.2 in assay [2] was determined as 12.

Consider `CC(=O)N1c2ccc(-c3ccc4occc(=O)c4c3)cc2[C@H](NC(=O)OC(C)C)C[C@@H]1C` [compound 80], for which the EC50 in assay [1] worked out at 6.3 µM; in assay [2], 1.1 µM; in assay [3] it was 5.3 µM; in assay [4], 2.1 µM; in assay [5], 4 µM. In assay [2], the 2.1/2.2 worked out at 2.0.

Turning to `CC(=O)Nc1cccc(-c2ccc3c(c2)[C@H](NC(=O)CCc2ccccc2)C[C@H](C)N3C(C)=O)c1` [compound 74], the EC50 worked out at 11 µM in assay [1]; 17 µM in assay [2]; 19 µM in assay [3]; 9.8 µM in assay [4]; 77 µM in assay [5]. Also, the 2.1/2.2 in assay [2] amounted to 0.65.

In the case of `CC(=O)Nc1cccc(-c2ccc3c(c2)[C@H](NCCCc2ccccc2)C[C@H](C)N3C(C)=O)c1` [compound 70], the EC50 amounted to 16 µM in assay [1]; 69 µM in assay [2]; 69 µM in assay [3]; 9.9 µM in assay [4]; 26 µM in assay [5]. Moreover, the 2.1/2.2 in assay [2] was determined as 0.23.

Turning to `CC(=O)Nc1cccc(-c2ccc3c(c2)[C@H](NC(=O)CC(C)C)C[C@H](C)N3C(C)=O)c1` [compound 73], the EC50 in assay [1] stood at 16 µM; in assay [2], 83 µM; in assay [3], 33 µM; in assay [4] it was 12 µM; in assay [5], 19 µM. The 2.1/2.2 in assay [2] was determined as 0.20.

For `CC(=O)N1c2ccc(-c3ccc4c(c3)OCCO4)cc2[C@H](NC(=O)OC(C)C)C[C@@H]1C` [compound 77], the EC50 in assay [1] is 16 µM; in assay [2], 9.7 µM; in assay [3], 15 µM; in assay [4], 10 µM; in assay [5], 14 µM. For the same molecule, the 2.1/2.2 in assay [2] was 1.6.

With `CC(=O)Nc1cccc(-c2ccc3c(c2)[C@H](NCc2ccc(C(F)(F)F)cc2)C[C@H](C)N3C(C)=O)c1` [compound 75], the EC50 was 53 µM in assay [1]; 53 µM in assay [2]; 53 µM in assay [3]; 36 µM in assay [4]; 53 µM in assay [5]. For the same molecule, in assay [2], the 2.1/2.2 is 1.0.

Consider `CC(=O)N1c2ccc(-c3cccc(N)c3)cc2[C@H](NC(=O)OC(C)C)C[C@@H]1C` [compound 2], for which the EC50 in assay [1] stood at 0.73 µM; in assay [2], 0.11 µM; in assay [3], 1.88 µM; in assay [4], 0.25 µM; in assay [5] it was 0.64 µM. For the same molecule, the 2.1/2.2 in assay [2] amounted to 6.6.

Turning to `CC(=O)N1c2ccc(-c3cccc(NC(=O)OC(C)(C)C)c3)cc2[C@H](NC(=O)OC(C)C)C[C@@H]1C` [compound 84], the EC50 stood at 2.5 µM in assay [1]; 0.46 µM in assay [2]; 2.1 µM in assay [3]; 0.99 µM in assay [4]; 3.5 µM in assay [5]. The 2.1/2.2 in assay [2] was 2.5.

As for `CC(=O)N1c2ccc(C3=CCCO3)cc2[C@H](NC(=O)OC(C)C)C[C@@H]1C` [compound 85], the EC50 in assay [1] was determined as 13 µM; in assay [2] it was 1.2 µM; in assay [3], 8.5 µM; in assay [4] it was 4.8 µM; in assay [5], 12 µM. Further, the 2.1/2.2 in assay [2] is recorded as 3.6.
